The source of these data is ChEMBL document CHEMBL4665663, “Anti-atherosclerosis effect of HS donors based on nicotinic acid and chlorfibrate structures” (Bioorg Med Chem, 2019).

The test system of data set [1] is RAW264.7. The data set can be described thus: Antioxidant activity in mouse RAW264.7 cells assessed as reduction in ox-LDL induced oxidative stress by measuring decrease in MDA level at 10 to 50 uM preincubated for 10 mins followed by ox-LDL stimulation and measured after 24 hrs. In kind it is functional, cell-based. Conditions: dose microM 10-50, time 10.0 min.

Data set [2] concerns RAW264.7. Kind of data set: Anti-atherosclerotic activity in mouse RAW264.7 cells assessed as decrease in ox-LDL induced intracellular lipid accumulation by measuring reduction in total cholesterol level at 10 to 50 uM preincubated for 10 mins followed by ox-LDL stimulation and measured after 24 hrs by colorimetric method. It is filed as functional, cell-based. Conditions: dose microM 10-50, time 10.0 min.

Data set [3] has as its system RAW264.7. Kind of data set: Inhibition of macrophage foam cell formation in mouse RAW264.7 cells assessed as reduction in ox-LDL induced red lipid droplets formation at 10 uM preincubated for 10 mins followed by ox-LDL stimulation and measured after 24 hrs by oil red O staining based inverted microscopy analysis. It is filed as functional.
Data set [4] deals with RAW264.7. Kind of data set: Antioxidant activity in mouse RAW264.7 cells assessed as reduction in ox-LDL induced ROS accumulation at 10 uM preincubated for 10 mins followed by ox-LDL stimulation and measured after 24 hrs by DCFH-DA staining based fluorescence microscopic analysis. It is filed as functional, cell-based.
In data set [5] the test system is RAW264.7. The data set can be described thus: Anti-inflammatory activity in mouse RAW264.7 cells assessed as decrease in ox-LDL induced inflammatory reaction by measuring increase in IL-10 production at 10 to 50 uM preincubated for 10 mins followed by ox-LDL stimulation and measured after 24 hrs. Conditions: dose microM 10-50, time 10.0 min. It is filed as functional, cell-based.

The test system of data set [6] is RAW264.7. The data set can be described thus: Anti-inflammatory activity in mouse RAW264.7 cells assessed as decrease in ox-LDL induced inflammatory reaction by measuring decrease in TNF-alpha production at 10 to 50 uM preincubated for 10 mins followed by ox-LDL stimulation and measured after 24 hrs. Conditions: dose microM 10-50, time 10.0 min. In kind it is functional, cell-based.

The test system of data set [7] is RAW264.7. Kind of data set: Anti-atherosclerotic activity in mouse RAW264.7 cells assessed as decrease in ox-LDL induced intracellular lipid accumulation by measuring reduction in free cholesterol level at 10 to 50 uM preincubated for 10 mins followed by ox-LDL stimulation and measured after 24 hrs by colorimetric method. Conditions: dose microM 10-50, time 10.0 min. In kind it is functional, cell-based.

Data set [8] concerns RAW264.7. Kind of data set: Antioxidant activity in mouse RAW264.7 cells assessed as reduction in ox-LDL induced oxidative stress by measuring increase in SOD level at 10 to 50 uM preincubated for 10 mins followed by ox-LDL stimulation and measured after 24 hrs. It is filed as functional, cell-based. Conditions: dose microM 10-50, time 10.0 min.
Data set [9] deals with RAW264.7. Kind of data set: Cytotoxicity against mouse RAW264.7 cells assessed as reduction in cell viability after 48 hrs by MTT assay. Conditions: RAW264.7, 48 h. It is filed as cell-based.
Data set [10] has as its system HUVEC. The data set can be described thus: Cytotoxicity against human HUVEC cells assessed as reduction in cell viability after 48 hrs by MTT assay. In kind it is cell-based. In general terms: Formazan colour is commonly taken as a measure of viable cells.
Data set [11] concerns WI-38. Kind of data set: Cytotoxicity against human WI38 cells assessed as reduction in cell viability after 48 hrs by MTT assay. Conditions: WI-38, 48 h. It is filed as cell-based.
The nature of data set [12]: Prodrug release in phosphate buffer containing L-cysteine assessed as H2S release by measuring H2S releasing half-life at 60 uM by methylene blue method. In kind it is ADME.
Data set [13] relates to H9c2. Kind of data set: Cytotoxicity against rat H9c2 cells assessed as reduction in cell viability after 48 hrs by MTT assay. In kind it is cell-based. Conditions: H9c2, 48 h.
Data set [14] relates to HUVEC. Kind of data set: Cytotoxicity against human HUVEC cells assessed as reduction in cell viability at 10 to 100 uM by MTT assay. It is filed as cell-based. Conditions: dose 10-100 µM.
The test system of data set [15] is HUVEC. The data set can be described thus: Cytoprotective activity against ox-LDL induced cell damage in human HUVEC cells assessed as increase in cell viability at 50 to 100 uM preincubated for 10 mins followed by ox-LDL stimulation measured after 24 hrs by MTT assay. It is filed as functional, cell-based. Conditions: dose microM 50-100, time 10.0 min.

The source made the active and inactive calls. The calls are words filed in the database; no cut-off is given here. A value given as a limit tells only on which side of the number the result lay.

A word on the IC50: it is the concentration needed to halve the response being measured.

As for `CCOC(=O)C(C)(C)Oc1ccc(Cl)cc1`, the outcome in data set [1], in [4] and in data set [8] was inactive. For the same compound, the outcome in [2], in data set [5], in data set [6] and in [7] was Active. For the same compound, the inhibition result in data set [3] is “Active”.

In the case of `Cc1cnc(C(=O)OCCCOC(=O)CCCCC2CCSS2)c[n+]1[O-]` (stereo not given), the IC50 in data set [9], in data set [10], in data set [11] and in [13] was above 800 µM in each case. Further, the t1/2 in data set [12] was 19.8 min.

As for `CC(C)(Oc1ccc(Cl)cc1)C(=O)NCCOC(=S)Nc1ccc(F)cc1`, the IC50 in [9] is above 800 µM; in data set [10] it was 773 µM; in data set [11], above 800 µM; in data set [13], above 800 µM. Besides, in [12], the t1/2 is 1.2 min.

Consider `CC(C)(Oc1ccc(Cl)cc1)C(=O)Oc1ccc(-c2cc(=S)ss2)cc1`, for which the half-maximal inhibitory concentration (IC50) in data set [9] is above 800 µM; in data set [10] it was 616 µM; in data set [11] it was 764 µM; in [13], 675 µM. The t1/2 in data set [12] turned out to be 4.2 min.

For the compound `Cc1ccc(NC(=S)OCCNC(=O)C(C)(C)Oc2ccc(Cl)cc2)cc1`, the half-inhibitory concentration (IC50) in data set [9] was above 800 µM; in [10], 661 µM; in [11] it was above 800 µM; in [13], 771 µM. Also, in [12], the t1/2 worked out at 1 min.

Regarding `O=C(Oc1ccc(-c2cc(=S)ss2)cc1)c1cccnc1`, the IC50 was above 800 µM in data set [9], 562 µM in [10], 734 µM in data set [11] and 627 µM in data set [13]. The t1/2 in [12] worked out at 3.3 min.

Turning to `COc1ccc(NC(=S)OCCNC(=O)c2cccnc2)cc1`, the IC50 in data set [9] was above 800 µM; in data set [10], 550 µM; in [11], 781 µM; in [13], 694 µM. The t1/2 in data set [12] is listed as 0.8 min.

For the compound `COc1ccc(NC(=S)OCCNC(=O)C(C)(C)Oc2ccc(Cl)cc2)cc1`, the IC50 is above 800 µM in data set [9], 616 µM in data set [10], 780 µM in [11] and 747 µM in [13]. The t1/2 in [12] worked out at 0.9 min.

In the case of `NC(=S)c1ccc(OC(=O)c2cccnc2)cc1`, the half-maximal inhibitory concentration (IC50) in data set [9] was above 800 µM; in data set [10], 683 µM; in data set [11], above 800 µM; in [13] it was 754 µM. Further, in data set [12], the t1/2 is listed as 2.1 min.

For the compound `CC(C)(Oc1ccc(Cl)cc1)C(=O)NCCOC(=S)Nc1ccc([N+](=O)[O-])cc1Cl`, the 50% inhibitory concentration (IC50) was above 800 µM in data set [9], 729 µM in data set [10], above 800 µM in data set [11] and above 800 µM in data set [13]. Further, in [12], the t1/2 is recorded as 1.7 min. The Activity entry in [14] was “Non-Toxic”. Besides, in data set [15], the outcome was Active.

For `O=C(O)c1cccnc1`, the outcome in data set [1], in data set [4] and in [8] was inactive. Besides, the result in [2], in data set [5], in data set [6] and in data set [7] was Active. Further, in data set [3], the inhibition entry was “Active”.

As to `CC(C)(Oc1ccc(Cl)cc1)C(=O)Oc1ccc(C(N)=S)cc1`, the IC50 in data set [9] is above 800 µM; in [10], 755 µM; in data set [11], above 800 µM; in data set [13], 797 µM. Further, in [12], the t1/2 turned out to be 5.6 min.

Turning to `O=C(NCCOC(=S)Nc1ccc([N+](=O)[O-])cc1Cl)c1cccnc1`, the half-inhibitory concentration (IC50) in data set [9] was above 800 µM; in [10], 701 µM; in data set [11], above 800 µM; in data set [13] it was above 800 µM. Moreover, the t1/2 in data set [12] was 2.1 min. In addition, in data set [14], the Activity result is on record as “Non-Toxic”. Also, the result in [15] was Active.

As for `Cc1ccc(NC(=S)OCCNC(=O)c2cccnc2)cc1`, the IC50 in [9] is above 800 µM; in data set [10], 567 µM; in data set [11] it was above 800 µM; in data set [13], 726 µM. Besides, the t1/2 in [12] is 0.9 min.

Take `Cc1cnc(C(=O)Oc2ccc(C(N)=S)cc2)c[n+]1[O-]`: the IC50 in data set [9] was above 800 µM; in data set [10], 714 µM; in [11] it was above 800 µM; in [13], 780 µM. For the same compound, in [12], the t1/2 is 3.9 min.

Consider `O=C(NCCOC(=S)Nc1ccc(F)cc1)c1cccnc1`, for which the IC50 is above 800 µM in data set [9], 692 µM in data set [10], above 800 µM in data set [11] and above 800 µM in data set [13]. For the same compound, in data set [12], the t1/2 was found to be 1.5 min.

Consider `CC(C)(Oc1ccc(Cl)cc1)C(=O)NCCOC(=S)Nc1ccccc1`, for which the IC50 in data set [9] was above 800 µM; in [10] it was 791 µM; in data set [11] it was above 800 µM; in data set [13], above 800 µM. For the same compound, the t1/2 in data set [12] is recorded as 1.4 min.

For the compound `O=C(NCCOC(=S)Nc1ccccc1)c1cccnc1`, the IC50 in data set [9] was above 800 µM; in data set [10], 724 µM; in data set [11], above 800 µM; in data set [13], above 800 µM. Besides, the t1/2 in data set [12] is 1.2 min.
